Entries after “also recorded” stand apart in the source; their conditions may differ. Like-named read-outs stand apart in the source and are kept apart here.
Columns and labels:
[1] = system: hPIV3 Rec. JS-GFP (parainfluenza type 3 virus); assay: in vitro; details: human
[2] = Cell viability assay (CellTiter-Glo 2.0), Huh7; details: human, uninfected Huh7 cells
NiV M-1999 (Nipah virus) = assay: in vitro; details: human
EBOV Rec. Makona-ZSG [3] = assay: microbe, parasite or virus in culture; details: Zaire ebolavirus, Huh-7
NiV M-1999 [4] = assay: microbe, parasite or virus in culture; details: Henipavirus nipahense
NiV Rec. M-Luc2AM [5] = assay: microbe, parasite or virus in culture; details: Henipavirus nipahense, HeLa
EBOV Makona [6] = system: EBOV Makona
[7] = system: MuV IA 2006 (Mumps virus); assay: in vitro; details: human
[8] = system: EBOV Makona (Ebola virus); assay: in vitro; details: human
[9] = system: EBOV Rec. Makona-ZSG (Ebola virus); assay: in vitro; details: human
NiV M-1999 [10] = system: NiV M-1999
EBOV Makona [11] = assay: microbe, parasite or virus in culture; details: Zaire ebolavirus
[12] = system: RSV Rec. rgRSV224 (A2) (respiratory syncytial virus); assay: in vitro; details: human
NiV Rec. M-GFP2AM [13] = system: NiV Rec. M-GFP2AM
hPIV3 Rec. JS-GFP [14] = system: hPIV3 Rec. JS-GFP
[15] = system: NiV Rec. M-GFP2AM (Nipah virus); assay: in vitro; details: human
HCV = details: cited from earlier work
NiV B-2004 = assay: microbe, parasite or virus in culture; details: Henipavirus nipahense
OHFV Bogoluvovska = assay: microbe, parasite or virus in culture; details: Omsk hemorrhagic fever virus, A549
NiV Rec. M-Luc2AM [16] = system: NiV Rec. M-Luc2AM
RSV Rec. rgRSV224 (A2) = assay: microbe, parasite or virus in culture; details: human respiratory syncytial virus, HeLa
hPIV3 Rec. JS-GFP [17] = assay: microbe, parasite or virus in culture; details: Human respirovirus 3, HeLa
RVFV Rec. ZH501-GFP = assay: microbe, parasite or virus in culture; assay type: cell-based, Rift Valley Fever virus
[18] = system: MARV Rec. Bat371-GFP (Marburg virus); assay: in vitro; details: human
KFDV P9605 = assay: microbe, parasite or virus in culture; details: Kyasanur Forest disease virus, A549
NiV Rec. M-GFP2AM [19] = assay: microbe, parasite or virus in culture; details: Henipavirus nipahense, HeLa
LASV Josiah = assay: microbe, parasite or virus in culture; details: Mammarenavirus lassaense, Huh-7
[20] = system: MV Rec. rMV^EZGFP(3) (Measles virus); assay: in vitro; details: human
[21] = system: EBOV Rec. Mayinga-Gluc (Ebola virus); assay: in vitro; details: human
EBOV Rec. Mayinga-Gluc = assay: microbe, parasite or virus in culture; details: Zaire ebolavirus, Huh-7
MARV Rec. Bat371-GFP = assay: organism not typed; details: Huh-7
[22] = Cell viability assay (CellTiter-Glo 2.0), HeLa; details: human, uninfected HeLa cells
[23] = system: NiV Rec. M-Luc2AM (Nipah virus); assay: in vitro; details: human
MV Rec. rMV^EZGFP(3) = assay: microbe, parasite or virus in culture; details: Measles morbillivirus, HeLa
VSV New Jersey = assay: microbe, parasite or virus in culture; assay type: cell-based, Vesicular Stomatitis virus
AHFV 200300001 = assay: organism not typed; details: A549
DenV = details: cited from earlier work
[24] = system: EBOV Rec. Mayinga-GFP (Ebola virus); assay: in vitro; details: human
MuV IA 2006 = assay: microbe, parasite or virus in culture; details: Mumps orthorubulavirus, HeLa
EBOV Rec. Makona-ZSG [25] = system: EBOV Rec. Makona-ZSG
[26] = not tested in this paper, no reference given
[27] = Vesicular stomatitis virus, HeLa

**Q.** Which selectivity ratio [1] does the source give for `CCC(CC)COC(=O)[C@H](C)N[P@](=O)(OC[C@H]1O[C@@](C#N)(c2ccc3c(N)ncnn23)[C@H](O)[C@@H]1O)Oc1ccccc1` [GS-5734] here?
**A.** 461

**Q.** What about the CC50 at 72 h [2] of the same molecule?
**A.** > 10000 nM

**Q.** What about the selectivity ratio (NiV M-1999 (Nipah virus)) of the same molecule?
**A.** 180

**Q.** What about the EC50 (EBOV Rec. Makona-ZSG [3]) of the same molecule?
**A.** 13.6 ± 1 nM

**Q.** And the EC90 (EBOV Rec. Makona-ZSG [3])?
**A.** 45 nM

**Q.** What about the EC50 (NiV M-1999 [4]) of the same molecule?
**A.** 47 nM

**Q.** What about the EC90 (NiV M-1999 [4]) of the same molecule?
**A.** 83 nM

**Q.** And the EC50 (NiV Rec. M-Luc2AM [5])?
**A.** 44.9 ± 1.8 nM

**Q.** What about the EC90 (NiV Rec. M-Luc2AM [5]) of the same molecule?
**A.** 126 nM

**Q.** What about the EC50 (EBOV Makona [6]) of the same molecule?
**A.** 3 nM

**Q.** And the “reduction in virus yield” value (EBOV Makona [6])?
**A.** greater than 4

**Q.** And the selectivity ratio [7]?
**A.** 10

**Q.** And the selectivity ratio [8]?
**A.** 666

**Q.** What about the selectivity ratio [9] of the same molecule?
**A.** 714

**Q.** What about the “reduction in virus yield” value (NiV M-1999 [10]) of the same molecule?
**A.** greater than 4

**Q.** What about the EC50 (EBOV Makona [11]; Macrophage) of the same molecule?
**A.** 3.4 nM

**Q.** And the EC90 (EBOV Makona [11]; Macrophage)?
**A.** 19 nM

**Q.** What about the selectivity ratio [12] of the same molecule?
**A.** 395

**Q.** What about the EC50 (NiV Rec. M-GFP2AM [13]) of the same molecule?
**A.** 29 nM

**Q.** And the EC50 (hPIV3 Rec. JS-GFP [14])?
**A.** 18 nM

**Q.** And the selectivity ratio [15]?
**A.** 286

**Q.** And the inhibition of virus (HCV; [26])?
**A.** inhibited

**Q.** And the EC50 (NiV B-2004)?
**A.** 32.4 ± 2.7 nM

**Q.** What about the EC90 (NiV B-2004) of the same molecule?
**A.** 106 nM

**Q.** And the EC90 (OHFV Bogoluvovska)?
**A.** 3900 nM

**Q.** What about the EC50 (NiV Rec. M-Luc2AM [16]) of the same molecule?
**A.** 45 nM

**Q.** What about the EC50 (RSV Rec. rgRSV224 (A2)) of the same molecule?
**A.** 21.1 ± 1.1 nM

**Q.** What about the EC90 (RSV Rec. rgRSV224 (A2)) of the same molecule?
**A.** 59 nM

**Q.** What about the EC50 (hPIV3 Rec. JS-GFP [17]) of the same molecule?
**A.** 17.7 ± 3.7 nM

**Q.** What about the EC90 (hPIV3 Rec. JS-GFP [17]) of the same molecule?
**A.** 350 nM

**Q.** What about the EC50 (RVFV Rec. ZH501-GFP) of the same molecule?
**A.** minimal to no antiviral activity; also recorded: No inhibition

**Q.** And the EC50 (RVFV Rec. ZH501-GFP; Rift Valley fever virus, Huh-7)?
**A.** > 10000 nM

**Q.** And the selectivity ratio [18]?
**A.** 714

**Q.** And the EC90 (KFDV P9605)?
**A.** 3400 nM

**Q.** What about the EC50 (NiV Rec. M-GFP2AM [19]) of the same molecule?
**A.** 28.7 nM

**Q.** What about the EC90 (NiV Rec. M-GFP2AM [19]) of the same molecule?
**A.** 53 nM

**Q.** What about the EC50 (LASV Josiah) of the same molecule?
**A.** 4490 ± 480 nM

**Q.** And the EC90 (LASV Josiah)?
**A.** 5100 nM

**Q.** What about the selectivity ratio [20] of the same molecule?
**A.** 224

**Q.** What about the selectivity ratio [21] of the same molecule?
**A.** 476

**Q.** And the EC50 (EBOV Rec. Mayinga-Gluc)?
**A.** 20.7 nM

**Q.** And the EC90 (EBOV Rec. Mayinga-Gluc)?
**A.** 53 nM

**Q.** And the EC50 (MARV Rec. Bat371-GFP)?
**A.** 13.9 ± 0.3 nM

**Q.** What about the EC90 (MARV Rec. Bat371-GFP) of the same molecule?
**A.** 47 nM

**Q.** And the CC50 at 72 h [22]?
**A.** 8300 nM

**Q.** And the selectivity ratio [23]?
**A.** 184

**Q.** What about the EC50 (MV Rec. rMV^EZGFP(3)) of the same molecule?
**A.** 36.5 ± 28 nM

**Q.** And the EC90 (MV Rec. rMV^EZGFP(3))?
**A.** 73 nM

**Q.** And the EC50 (VSV New Jersey)?
**A.** not inhibited; also recorded: No inhibition

**Q.** And the EC50 (VSV New Jersey; [27])?
**A.** > 10000 nM

**Q.** What about the EC50 (AHFV 200300001) of the same molecule?
**A.** 4150 ± 480 nM

**Q.** And the EC90 (AHFV 200300001)?
**A.** 17600 nM

**Q.** What about the inhibition of virus (DenV; [26]) of the same molecule?
**A.** inhibited

**Q.** And the selectivity ratio [24]?
**A.** 151

**Q.** And the EC50 (MuV IA 2006)?
**A.** 790 nM

**Q.** And the EC90 (MuV IA 2006)?
**A.** 3400 nM

**Q.** And the EC50 (EBOV Rec. Makona-ZSG [25])?
**A.** 14 nM

**Q.** What does the source list for `N#C[C@@]1(c2ccc3c(N)ncnn23)O[C@H](CO)[C@@H](O)[C@H]1O` [Nuc]?
**A.** selectivity ratio [1]: 98; CC50 at 72 h [2]: > 50000 nM; selectivity ratio (NiV M-1999 (Nipah virus)): 102; EC50 (EBOV Rec. Makona-ZSG [3]): 1280 ± 140 nM; EC90 (EBOV Rec. Makona-ZSG [3]): 3300 nM; EC90 (NiV M-1999 [4]; HeLa): 1400 nM; EC50 (NiV Rec. M-Luc2AM [5]): 1570 ± 780 nM; EC90 (NiV Rec. M-Luc2AM [5]): 5700 nM; EC50 (EBOV Makona [6]): 1000 nM; reduction in virus yield (EBOV Makona [6]): greater than 5; selectivity ratio [7]: 5; selectivity ratio [8]: 50; selectivity ratio [9]: 38; reduction in virus yield (NiV M-1999 [10]): greater than 5; EC50 (EBOV Makona [11]; Huh-7): 1020 nM; EC90 (EBOV Makona [11]; Huh-7): 2500 nM; selectivity ratio [12]: 79; EC50 (NiV Rec. M-GFP2AM [13]): 2200 nM; EC50 (hPIV3 Rec. JS-GFP [14]): 510 nM; selectivity ratio [15]: 22; antiviral activity (active or not) (HCV): active; antiviral activity (active or not) (HCV; listed as GS-441524): shown to have activity; EC50 (NiV B-2004): 2460 nM; EC50 (OHFV Bogoluvovska): 50600 nM; EC90 (OHFV Bogoluvovska): > 350000 nM; EC50 (NiV Rec. M-Luc2AM [16]): 1500 nM; EC50 (RSV Rec. rgRSV224 (A2)): 630 nM; EC90 (RSV Rec. rgRSV224 (A2)): 2200 nM; EC50 (hPIV3 Rec. JS-GFP [17]): 520 ± 80 nM; EC90 (hPIV3 Rec. JS-GFP [17]): 1000 nM; EC50 (RVFV Rec. ZH501-GFP): little to no antiviral activity; also recorded: No inhibition; EC50 (RVFV Rec. ZH501-GFP; Rift Valley fever virus, Huh-7): > 50000 nM; selectivity ratio [18]: 26; EC50 (KFDV P9605): 46300 nM; EC90 (KFDV P9605): > 350000 nM; EC50 (NiV Rec. M-GFP2AM [19]): 2230 ± 1400 nM; EC90 (NiV Rec. M-GFP2AM [19]): 4000 nM; EC50 (LASV Josiah): > 50000 nM; selectivity ratio [20]: 50; selectivity ratio [21]: 16; EC50 (EBOV Rec. Mayinga-Gluc): 3100 nM; EC90 (EBOV Rec. Mayinga-Gluc): 11000 nM; EC50 (MARV Rec. Bat371-GFP): 1860 ± 130 nM; EC90 (MARV Rec. Bat371-GFP): 4600 nM; CC50 at 72 h [22]: > 50000 nM; selectivity ratio [23]: 33; EC50 (MV Rec. rMV^EZGFP(3)): 990 ± 360 nM; EC90 (MV Rec. rMV^EZGFP(3)): 2600 nM; EC50 (VSV New Jersey): little to no antiviral activity; also recorded: No inhibition; EC50 (VSV New Jersey; [27]): > 50000 nM; EC50 (AHFV 200300001): 49900 ± 2060 nM; EC90 (AHFV 200300001): > 150000 nM; antiviral activity (active or not) (DenV): active; antiviral activity (active or not) (DenV; listed as GS-441524): shown to have activity; selectivity ratio [24]: 31; EC50 (MuV IA 2006): 7000 to 12000 nM; EC90 (MuV IA 2006): 26300 nM; EC50 (EBOV Rec. Makona-ZSG [25]): 1300 nM

— publication PMC5338263, “GS-5734 and its parent nucleoside analog inhibit Filo-, Pneumo-, and Paramyxoviruses” (Scientific Reports, 2017)
